# From patent US12077503B2, “Substituted cyclic amides and their use as herbicides” (FMC CORPORATION, priority 2015, dated 2024)
# Read-outs that look alike come from different tables or passages of the source.
# How the values were obtained:
# Format in all cases: in vivo
# [1] = system: ragweed (common ragweed, Ambrosia elatior); assay: Test A preemergence; conditions: Ambrosia artemisiifolia, pre-emergence, 240 h, preemergence; for pest or weed control at 500 g/ha: 500 g ai/ha
# How it was run: (§1)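 Visual injury scores from 0, no effect, to 100, complete control, were assigned versus untreated controls roughly 10 d after treatment in the greenhouse. Test chemicals, formulated with surfactant in a non-phytotoxic solvent, were applied to planted seeds as a preemergence soil spray or postemergence to one- to two-leaf plants 2 to 10 cm tall, in loam–sand soil.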
# [2] = system: pigweed (Amaranthus retroflexus); assay: Test A preemergence; conditions: Amaranthus retroflexus, pre-emergence, 240 h, preemergence; for pest or weed control at 125 g/ha: 125 g ai/ha, 0 to 100 scale where 0 is no effect and 100 is complete control; for pest or weed control at 500 g/ha: 500 g ai/ha
# [3] = system: barnyardgrass (Echinochloa crus-galli); assay: Test A preemergence; conditions: Echinochloa crus-galli, pre-emergence, 240 h, preemergence; for pest or weed control at 125 g/ha: 125 g ai/ha, 0 to 100 scale where 0 is no effect and 100 is complete control; for pest or weed control at 500 g/ha: 500 g ai/ha
# How it was run: as §1
# Kochia (Kochia scoparia) [4] = assay: Test A preemergence; conditions: Bassia scoparia, pre-emergence, 240 h, preemergence; for pest or weed control at 125 g/ha: 125 g ai/ha, 0 to 100 scale where 0 is no effect and 100 is complete control; for pest or weed control at 500 g/ha: 500 g ai/ha
# How it was run: as §1
# [5] = system: ryegrass, Italian (Italian ryegrass, Lolium multiflorum); assay: Test A preemergence; conditions: Lolium multiflorum, pre-emergence, 240 h, preemergence
# How it was run: as §1
# [6] = system: giant foxtail (Setaria faberii); assay: Test A preemergence; conditions: Setaria faberi, pre-emergence, 240 h, preemergence; for pest or weed control at 125 g/ha: 125 g ai/ha, 0 to 100 scale where 0 is no effect and 100 is complete control; for pest or weed control at 500 g/ha: 500 g ai/ha
# How it was run: as §1
# [7] = system: ragweed (common ragweed, Ambrosia elatior); assay: Test A postemergence; conditions: Ambrosia artemisiifolia, post-emergence, 240 h, 125 g ai/ha, visual injury after approximately 10 d, read-out: Plant response rating, Ragweed
# How it was run: as §1
# [8] = system: blackgrass (Alopecurus myosuroides); assay: Test A postemergence; conditions: Alopecurus myosuroides, post-emergence, 240 h, 125 g ai/ha, visual injury after approximately 10 d, read-out: Plant response rating, Blackgrass
# How it was run: as §1
# [9] = system: pigweed (Amaranthus retroflexus); assay: Test A postemergence; conditions: Amaranthus retroflexus, post-emergence, 240 h, 125 g ai/ha, visual injury after approximately 10 d, read-out: Plant response rating, Pigweed
# How it was run: as §1
# [10] = system: barnyardgrass (Echinochloa crus-galli); assay: Test A postemergence; conditions: Echinochloa crus-galli, post-emergence, 240 h, 125 g ai/ha, visual injury after approximately 10 d, read-out: Plant response rating, Barnyardgrass
# How it was run: as §1
# [11] = system: wheat (Triticum aestivum); assay: Test A postemergence; conditions: Triticum aestivum, post-emergence, 240 h, 125 g ai/ha, visual injury after approximately 10 d, read-out: Plant response rating, Wheat
# How it was run: as §1
# Kochia (Kochia scoparia) [12] = assay: Test A postemergence; conditions: Bassia scoparia, post-emergence, 240 h, 125 g ai/ha, visual injury after approximately 10 d, read-out: Plant response rating, Kochia
# How it was run: as §1
# [13] = system: ryegrass, Italian (Italian ryegrass, Lolium multiflorum); assay: Test A postemergence; conditions: Lolium multiflorum, post-emergence, 240 h, 125 g ai/ha, visual injury after approximately 10 d, read-out: Plant response rating, Ryegrass, Italian
# How it was run: as §1
# [14] = system: Galium (catchweed bedstraw, Galium aparine); assay: Test A postemergence; conditions: Galium, post-emergence, 240 h, 125 g ai/ha, visual injury after approximately 10 d, read-out: Plant response rating, Galium
# How it was run: as §1
# corn (Zea mays) = assay: Test A postemergence; conditions: Zea mays, post-emergence, 240 h, 125 g ai/ha, visual injury after approximately 10 d
# How it was run: as §1
# [15] = system: giant foxtail (Setaria faberii); assay: Test A postemergence; conditions: Setaria faberi, post-emergence, 240 h, 125 g ai/ha, visual injury after approximately 10 d, read-out: Plant response rating, Foxtail, Giant
# How it was run: as §1
# [16] = postemergence, 0 to 100 scale (0 no effect, 100 complete control)
# [17] = Postemergence, 0 to 100 scale where 0 is no effect and 100 is complete control
compound,measurement,setting,value
CCc1ccc([C@H]2CNC(=S)[C@@H]2C(=O)Nc2cccc(F)c2C)cc1 [Compound 761],pest or weed control at 125 g/ha,"[1]; 125 g ai/ha, visual rating after approx. 10 d, 0 to 100 scale where 0 is no effect and 100 is complete control, read-out: Plant response rating, Ragweed",0%
same,pest or weed control at 500 g/ha,"[1]; 0 to 100 scale, 0 = no effect, 100 = complete control, read-out: Plant response rating, Ragweed",0%
same,pest or weed control at 125 g/ha,"[2]; visual rating after approx. 10 d, read-out: Plant response rating, Pigweed",0%
same,pest or weed control at 500 g/ha,"[2]; 0 to 100 scale, 0 = no effect, 100 = complete control, read-out: Plant response rating, Pigweed",0%
same,pest or weed control at 125 g/ha,"[3]; visual rating after approx. 10 d, read-out: Plant response rating, Barnyardgrass",90%
same,pest or weed control at 500 g/ha,"[3]; 0 to 100 scale, 0 = no effect, 100 = complete control, read-out: Plant response rating, Barnyardgrass",100%
same,pest or weed control at 125 g/ha,"Kochia (Kochia scoparia) [4]; visual rating after approx. 10 d, read-out: Plant response rating, Kochia",30%
same,pest or weed control at 500 g/ha,"Kochia (Kochia scoparia) [4]; 0 to 100 scale, 0 = no effect, 100 = complete control, read-out: Plant response rating, Kochia",80%
same,pest or weed control at 125 g/ha,"[5]; 125 g ai/ha, visual rating after approx. 10 d, 0 to 100 scale where 0 is no effect and 100 is complete control, read-out: Plant response rating, Ryegrass, Italian",0%
same,pest or weed control at 125 g/ha,"[6]; visual rating after approx. 10 d, read-out: Plant response rating, Foxtail, Giant",60%
same,pest or weed control at 500 g/ha,"[6]; 0 to 100 scale, 0 = no effect, 100 = complete control, read-out: Plant response rating, Foxtail, Giant",90%
same,pest or weed control at 125 g/ha,[7]; [16],0%
same,pest or weed control at 125 g/ha,[8]; [16],0%
same,pest or weed control at 125 g/ha,[9]; [16],0%
same,pest or weed control at 125 g/ha,[10]; [16],70%
same,plant injury at 125 g/ha,[11]; [16],0%
same,pest or weed control at 125 g/ha,Kochia (Kochia scoparia) [12]; [16],0%
same,pest or weed control at 125 g/ha,[13]; [16],0%
same,pest or weed control at 125 g/ha,[14]; [16],0%
same,"Corn plant response rating (crop injury, 0 = no effect, 100 = complete kill) at 125 g/ha",corn (Zea mays); [16],0%
same,pest or weed control at 125 g/ha,[15]; [16],60%
CCc1ccccc1NC(=O)[C@H]1C(=O)N(C)C[C@@H]1c1ccc(C(F)(F)F)cc1 [Compound 935],pest or weed control at 500 g/ha,"[1]; visual injury rating about 10 d after treatment, 0 to 100 scale (0 no effect, 100 complete control), read-out: Ragweed plant response rating",30%
same,pest or weed control at 125 g/ha,[2]; read-out: Pigweed plant response rating,20%
same,pest or weed control at 500 g/ha,"[2]; visual injury rating about 10 d after treatment, 0 to 100 scale (0 no effect, 100 complete control), read-out: Pigweed plant response rating",20%
same,pest or weed control at 125 g/ha,[3]; read-out: Barnyardgrass plant response rating,70%
same,pest or weed control at 500 g/ha,"[3]; visual injury rating about 10 d after treatment, 0 to 100 scale (0 no effect, 100 complete control), read-out: Barnyardgrass plant response rating",90%
same,pest or weed control at 125 g/ha,Kochia (Kochia scoparia) [4]; read-out: Kochia plant response rating,70%
same,pest or weed control at 500 g/ha,"Kochia (Kochia scoparia) [4]; visual injury rating about 10 d after treatment, 0 to 100 scale (0 no effect, 100 complete control), read-out: Kochia plant response rating",80%
same,pest or weed control at 500 g/ha,"[5]; 500 g ai/ha, visual injury rating about 10 d after treatment, 0 to 100 scale (0 no effect, 100 complete control), read-out: Ryegrass, Italian plant response rating",50%
same,pest or weed control at 125 g/ha,"[6]; read-out: Foxtail, Giant plant response rating",90%
same,pest or weed control at 500 g/ha,"[6]; visual injury rating about 10 d after treatment, 0 to 100 scale (0 no effect, 100 complete control), read-out: Foxtail, Giant plant response rating",90%
same,pest or weed control at 125 g/ha,[7]; [17],0%
same,pest or weed control at 125 g/ha,[8]; [17],60%
same,pest or weed control at 125 g/ha,[9]; [17],20%
same,pest or weed control at 125 g/ha,[10]; [17],70%
same,plant injury at 125 g/ha,[11]; [17],30%
same,pest or weed control at 125 g/ha,Kochia (Kochia scoparia) [12]; [17],30%
same,pest or weed control at 125 g/ha,[13]; [17],20%
same,pest or weed control at 125 g/ha,[14]; [17],40%
same,"Corn plant response rating (crop injury, 0 = no effect, 100 = complete kill) at 125 g/ha",corn (Zea mays); [17],40%
same,pest or weed control at 125 g/ha,[15]; [17],90%
